Assay results taken from patent publication US6562332B2, “Attractants of beneficial insects” (Iowa State University Research Foundation, Inc., priority 1999, dated 2003).
Entries after “also recorded” stand apart in the source; their conditions may differ.

Tests used:
[1] = system: antennae of Coleomegilla maculata; assay: Electroantennogram (EAG) responses of Coleomegilla maculata antennae; conditions: for EAG response: C. maculata antennae, both sexes; for dose eliciting significant EAG responses from female antennae: C. maculata female antennae; for dose eliciting significant EAG responses from female antennae / EAG response threshold of female antennae / dose at which EAG of male antennae reached saturation: dose-response; for dose at which EAG saturation occurred / minimum dose for a significant EAG response: both male and female antennae; for EAG response threshold of female antennae: C. maculata female antennae versus male
Description: Adults of both sexes were anesthetized by placing them at −20° C., then the abdomen and elytra of adults were cut off with a pair of fine scissors. Dissecting tools were rinsed with acetone several times between dissections to avoid cross-contamination. The dissected parts were extracted in a 1-ml vial containing 500 μl of hexane for two hours. Ten males and females were dissected and extracted. The extracts were concentrated to 200 μl under a mild stream of N2. Approximately 20 μl of the extracts, equivalent to one adult, was used for the EAG tests.
(§1) Both sexes of C. maculata were handled vigorously, and pressed against a piece of filter paper (Whatman, No. 1), resulting in reflex bleeding production of orange colored fluid excreted through the joints of the legs, that was absorbed into the filter paper. Fluids from 20 beetles were collected. The filter paper used for the collection was then cut into small pieces and placed in a 2-ml vial and extracted with 200 μl of hexane for one hour. A volume of 10 μl of the concentrated extract was used for EAG tests.
(§2) Corn (Pioneer, Hybrid 3489) was grown in the greenhouse under approx. 25° C. and 75% humidity, with natural light supplemented by 400 Watt high pressure sodium lights. The three-leaf stage of plants was used for volatile collections, because this life stage is infested by corn leaf aphids (Bing, J. W., et al., 1992, J. Econ. Entomol.21:223-234) and it is also a stage searched by these predatory species. Corn leaves were removed from plants, and ca. 15 g placed in a 0.5-1 glass collector with two openings on each side. A stream of purified air passing through a freshly activated charcoal filter was blown into the inlet of the collector, through the corn leaves, then exited through the outlet connected to a Tenax trap. The trap consisted of a Pasteur pipette (5 cm long and 0.5 cm diameter) packed with 300 mg of Tenax (20-35 mesh, Alltech, Ill.). The flow rate of the air was 150 ml/min from the outlet of the Tenax trap, and the volatiles were collected for 18 hours. The trapped volatiles were eluted with HPLC-grade hexane. The extracts from three collections were combined and concentrated to 100 μl. Ten microliters of extracts were used for each EAG test.
(§3) Dried seeds and flowers of catnip, Nepeta cataria, were purchased from a local pet store. For EAG tests, approx. 0.2 mg of dried plant material was homogenized, then extracted by adding 500 μl of hexane. The extract was poured through a funnel with filter paper (Whatman No.1), and the residue was discarded. The extract was concentrated to 100 μl, under a mild stream of N2. The extract was then stored at −20° C. until used in EAG tests.
EAG recordings were made by connecting an electrogel-filled (Spectro 360, Parker Laboratory, New Jersey) glass-pipette Ag/AgCl electrode to the head of an excised beetle or lacewing. A recording electrode filled with the same electrogel connected to a high-impedance DC amplifier with automatic baseline drift compensation, was placed in contact with the tip of their antennae (intact). Antennal responses to various chemical stimuli were first recorded for a series of commercial synthetic compounds representing known corn leaf volatiles. Then, male and female body extracts of C. maculata, reflex bleeding extracts, aphid alarm pheromone and catnip extracts were tested. A second series of EAG tests was then conducted including dose-response series using selected EAG-active compounds from the first test. Serial dilutions of the tested compounds were made in redistilled HPLC-grade hexane at dosages ranging from 0.1 μg to 1000 μg, except α-terpineol, for which methylene chloride was used. The tested compounds and extracts were applied to filter-paper strips (0.5×2.5 cm, Whatman No.1) in 10 μl of solvent, except as otherwise noted. The filter-paper strips were inserted into Pasteur pipettes (15 cm long). Control puffs of air were applied after each puff of a test stimulus. […]

[2] = system: antennae of Chrysoperla carnea; assay: Electroantennogram (EAG) responses of Chrysoperla carnea antennae; conditions: for EAG response: C. carnea antennae
Description: as §1, §2, §3
EAG recordings were made by connecting an electrogel-filled (Spectro 360, Parker Laboratory, New Jersey) glass-pipette Ag/AgCl electrode to the head of an excised beetle or lacewing. A recording electrode filled with the same electrogel connected to a high-impedance DC amplifier with automatic baseline drift compensation, was placed in contact with the tip of their antennae (intact). Antennal responses to various chemical stimuli were first recorded for a series of commercial synthetic compounds representing known corn leaf volatiles. Then, male and female body extracts of C. maculata, reflex bleeding extracts, aphid alarm pheromone and catnip extracts were tested. A second series of EAG tests was then conducted including dose-response series using selected EAG-active compounds from the first test. Serial dilutions of the tested compounds were made in redistilled HPLC-grade hexane at dosages ranging from 0.1 μg to 1000 μg, except α-terpineol, for which methylene chloride was used. The tested compounds and extracts were applied to filter-paper strips (0.5×2.5 cm, Whatman No.1) in 10 μl of solvent, except as otherwise noted. The filter-paper strips were inserted into Pasteur pipettes (15 cm long). Control puffs of air were applied after each puff of a test stimulus. The response to the air puff was used to normalize beetle or lacewing responses relative to the tested stimuli. The average EAG response to the air puff from antennae of C. maculata and C. carnea was 0.05±0.003 mV (n=30) and 0.02±0.001 mV (n=27), respectively. The relative EAG response of each stimulus was normalized by dividing the amplitude of the test stimulus by the mean of the response to the control puff. The sequence of exposure of each stimulus to each antenna was randomly defined.

Coleomegilla maculata = assay: Field trapping test in an alfalfa field, C. maculata catches; type: in vivo; conditions: traps baited with 50 mg
Description: (§4) A field trapping test was conducted in an alfalfa field in Ames, Iowa. Synthetic compounds at a dose of 50 mg were prepared in hexane or methylene chloride. Medical peerless cotton rolls (5 cm long, 100% cotton) were used as dispensers, and the traps used were similar to the Rebell Trap (Great Lakes IPM, Mich.). The trap was hung from the bent end of an electric farm post, 1.2 m above the ground. Within a replicate (N=3), traps were set at least 10 m apart. The traps were checked daily, and trap position within a series was randomized to minimize the effects of habitat heterogenity.

Chrysoperla carnea = assay: Field trapping test in an alfalfa field, C. carnea catches; type: in vivo; conditions: traps baited with 50 mg
Description: as §4

C. cognata = conditions: Boo et al. 1998; cited from earlier work
Harmonia axyridis = conditions: behavioral test; cited from earlier work
Hippodamia convergens = conditions: behavioral test; cited from earlier work
[3] = system: Coccinella septempunctata; conditions: Nakamuta 1991; cited from earlier work
C. carnea = conditions: earlier study, Flint et al. 1979; cited from earlier work

| SMILES | EAG response [1] | EAG response ([2]; both sexes) | trap catches / attraction of C. maculata in field test (Coleomegilla maculata) | EAG response threshold of female antennae [1] | also measured |
| --- | --- | --- | --- | --- | --- |
| C=CC(O)CCCCC (stereo not shown) [1-octen-3-ol, 1-Octen-3-ol] | EAG responses | – | – | – | difference in EAG response between male and female antennae ([1]; C. maculata, male relative to female): significantly higher EAG response; also recorded: Sexual differences |
| OCCc1ccccc1 [2-phenylethanol, 2-Phenylethanol] | significantly higher; also recorded: highest EAG responses | significant response; also recorded: highly sensitive; also recorded: most strongly | significantly attracted; also recorded: highly attractive | – | dose eliciting significant EAG responses from female antennae [1]: 10 µg; dosage eliciting significant EAG responses ([2]; C. carnea, antennae of both sexes): 10 µg; trap catches / attraction of C. carnea in field test (Chrysoperla carnea): significantly attracted; also recorded: highly attractive |
| CC1=CO[C@@H](O)[C@H]2[C@@H]1CC[C@@H]2C [(1R,4aS,7S,7aR)-nepetalactol, reference compound] | responded; also recorded: significant EAG responses | responded; also recorded: significant EAG responses | – | – | dose at which EAG saturation occurred ([1]; C. maculata): 100 µg; minimum dose for a significant EAG response ([1]; C. maculata): 100 µg |
| CC1=COC(=O)[C@H]2[C@@H]1CC[C@@H]2C [(4aS,7S,7aR)-nepetalactone, reference compound] | responded; also recorded: relatively higher EAG response; also recorded: significant EAG responses | responded; also recorded: significant EAG responses | – | higher thresholds | dose at which EAG saturation occurred ([1]; C. maculata): 100 µg; minimum dose for a significant EAG response ([1]; C. maculata): 100 µg; attraction of adult C. cognata in the field (C. cognata): attracted; EAG response of female antennae ([2]; C. carnea female antennae): greater |
| C=CC(=C)CC/C=C(\C)CCC=C(C)C [(E)-β-farnesene, (E)-β-Farnesene] | significantly higher; also recorded: highest EAG responses | significant response; also recorded: increased with increasing doses; also recorded: highly sensitive; also recorded: most strongly | no differences in catches | – | EAG response of male antennae ([1]; C. maculata male antennae): as high as those in response to aphid sex pheromone; dose at which EAG of male antennae reached saturation ([1]; C. maculata male antennae): 100 µg; attraction of Harmonia axyridis (Harmonia axyridis): attracted; dose of highest EAG response ([2]; C. carnea, both sexes, dose-response): 1000 µg; attraction of Hippodamia convergens (Hippodamia convergens): attracted; searching behaviors of Coccinella septempunctata [3]: does not elicit searching behaviors |
| CC/C=C\CCO [(Z)-3-hexenol, (Z)-Hexenol] | EAG responses | relatively lower EAG responses | – | higher thresholds | – |
| CCCCCCO [hexanol, 1-Hexanol] | EAG responses | – | – | – | – |
| CC1=CCC(C(C)(C)O)CC1 (stereo not drawn) [α-terpineol, α-Terpineol] | significantly higher; also recorded: highest EAG responses | relatively lower EAG responses | Significant catches | higher thresholds | dose eliciting significant EAG responses from female antennae [1]: 10 µg; dose at which EAG of male antennae reached saturation ([1]; C. maculata male antennae): 100 µg; trap catches / attraction of C. maculata in field test (Coleomegilla maculata; listed as a-terpineol): attracted |
| C=C1CC/C=C(\C)CC[C@@H]2[C@@H]1CC2(C)C [β-caryophyllene, β-Caryophyllene] | highest EAG responses | relatively low EAG response | – | – | attraction of adults of C. carnea in the field (C. carnea): acts as an attractant; trap catches / attraction of C. carnea in field test (Chrysoperla carnea): low catches |
